This is an account of results in paper PMC4338257 (Drug Design, Development and Therapy, 2015).

In the test the target is human ether-à-go-go-related gene (hERG) channel (Kv11.1) (Homo sapiens, UniProt Q12809). In words: whole-cell patch clamp in HEK […] cells stably expressing hERG. The class given is cell-based. In general terms: In patch-clamp work, channel activity is measured electrically.
Chain of human ether-à-go-go-related gene (hERG) channel (Kv11.1) (Q12809 whole entry): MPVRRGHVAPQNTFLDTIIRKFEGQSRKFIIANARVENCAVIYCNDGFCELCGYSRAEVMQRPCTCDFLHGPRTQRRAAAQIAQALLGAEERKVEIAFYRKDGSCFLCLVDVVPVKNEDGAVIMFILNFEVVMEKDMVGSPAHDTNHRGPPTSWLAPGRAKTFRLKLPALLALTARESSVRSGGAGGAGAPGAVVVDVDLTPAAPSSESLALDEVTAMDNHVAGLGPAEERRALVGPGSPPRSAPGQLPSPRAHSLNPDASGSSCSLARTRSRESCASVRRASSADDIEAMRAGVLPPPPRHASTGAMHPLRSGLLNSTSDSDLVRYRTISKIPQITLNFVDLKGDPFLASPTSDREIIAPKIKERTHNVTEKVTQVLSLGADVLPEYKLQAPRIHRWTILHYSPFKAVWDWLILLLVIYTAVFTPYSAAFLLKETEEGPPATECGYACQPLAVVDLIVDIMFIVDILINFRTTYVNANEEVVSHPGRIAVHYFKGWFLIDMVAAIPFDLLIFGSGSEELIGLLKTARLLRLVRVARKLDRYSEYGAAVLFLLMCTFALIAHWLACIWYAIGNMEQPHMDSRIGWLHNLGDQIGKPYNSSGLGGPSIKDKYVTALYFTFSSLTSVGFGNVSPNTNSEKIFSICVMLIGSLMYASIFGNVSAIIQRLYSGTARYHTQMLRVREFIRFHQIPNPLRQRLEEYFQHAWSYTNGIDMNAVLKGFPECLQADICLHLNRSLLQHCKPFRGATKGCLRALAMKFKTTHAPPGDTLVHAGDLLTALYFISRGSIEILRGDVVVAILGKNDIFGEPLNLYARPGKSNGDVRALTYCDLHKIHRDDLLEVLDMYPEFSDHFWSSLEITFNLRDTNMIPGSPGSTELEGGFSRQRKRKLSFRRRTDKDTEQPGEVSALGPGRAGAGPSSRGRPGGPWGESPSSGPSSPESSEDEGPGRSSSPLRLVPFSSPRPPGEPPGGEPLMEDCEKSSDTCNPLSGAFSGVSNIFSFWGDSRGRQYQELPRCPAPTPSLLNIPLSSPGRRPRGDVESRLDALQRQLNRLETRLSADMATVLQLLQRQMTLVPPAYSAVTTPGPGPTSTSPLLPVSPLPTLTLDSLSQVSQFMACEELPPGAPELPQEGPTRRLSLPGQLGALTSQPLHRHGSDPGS

The term IC50 denotes the concentration that inhibits the measured activity by half. As to `Cc1ncc2n1-c1ccc(Cl)cc1C(c1ccccc1F)=NC2` [midazolam], 13.6 µM corresponded to half-maximal inhibition (IC50). This counts as double-digit micromolar.
